Reference: patent US9676714B2, “Sulfonylindole derivatives and method for preparing the same” (Daewoong Pharmaceutical Co., Ltd., priority 2013, dated 2017)
Where a name gives a salt, the structure may show the parent alone.

Biological target: T1, proton pump (H+/K+-ATPase) (Sus scrofa, UniProt P19156)
T1 construct: Gastric vesicles were prepared from hog stomach via centrifugal separation; from tissue; host or cells: hog stomach (gastric vesicles, method of Rabon et al. 1988)
Assay: Measurement of inhibitory effects on proton pump (H+/K+-ATPase) activities
Assay type: biochemical
Conditions: hog gastric vesicles, K+-specific H+/K+-ATPase activity, Tris-HCl buffer pH 7.4, 37° C. for 40 minutes, malachite green Pi readout
Outline: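 Hog gastric vesicles in 60 mmol/l Tris-HCl pH 7.4 with 0.5% DMSO were treated with compounds at room temperature; reaction was started with 10 μl of 10 mmol/l ATP stock. Released Pi was read at 570 nm, K+-specific activity taken as the ±K+ difference. IC50 from 4-parameter logistic fit.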

T1 sequence (P19156 whole entry): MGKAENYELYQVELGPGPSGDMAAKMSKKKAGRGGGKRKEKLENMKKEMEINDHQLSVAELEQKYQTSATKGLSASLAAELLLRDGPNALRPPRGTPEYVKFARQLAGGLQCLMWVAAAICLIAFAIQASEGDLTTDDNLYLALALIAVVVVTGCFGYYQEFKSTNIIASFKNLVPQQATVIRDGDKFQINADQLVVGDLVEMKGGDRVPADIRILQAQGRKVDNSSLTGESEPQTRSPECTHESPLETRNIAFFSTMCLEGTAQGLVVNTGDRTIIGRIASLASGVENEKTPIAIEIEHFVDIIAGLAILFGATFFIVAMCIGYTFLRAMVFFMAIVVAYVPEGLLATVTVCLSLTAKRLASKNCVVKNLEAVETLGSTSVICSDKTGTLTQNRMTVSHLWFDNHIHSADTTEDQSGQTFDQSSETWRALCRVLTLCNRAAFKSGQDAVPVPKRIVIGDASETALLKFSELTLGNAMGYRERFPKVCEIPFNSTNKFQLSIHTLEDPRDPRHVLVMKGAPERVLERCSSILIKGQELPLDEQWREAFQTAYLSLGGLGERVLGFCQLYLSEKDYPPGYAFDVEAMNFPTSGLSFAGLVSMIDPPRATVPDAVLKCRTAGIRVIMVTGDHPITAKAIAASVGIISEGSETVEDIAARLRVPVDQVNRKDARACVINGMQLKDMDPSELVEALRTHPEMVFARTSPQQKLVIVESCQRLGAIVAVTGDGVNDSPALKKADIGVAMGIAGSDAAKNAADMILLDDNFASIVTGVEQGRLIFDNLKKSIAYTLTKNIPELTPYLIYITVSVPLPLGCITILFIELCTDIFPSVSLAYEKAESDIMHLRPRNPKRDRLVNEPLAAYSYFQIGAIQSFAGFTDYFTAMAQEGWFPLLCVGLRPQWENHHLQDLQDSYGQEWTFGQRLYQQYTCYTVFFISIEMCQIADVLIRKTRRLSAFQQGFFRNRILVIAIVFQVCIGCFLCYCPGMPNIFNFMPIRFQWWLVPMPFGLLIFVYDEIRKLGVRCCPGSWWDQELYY
T1 sequence (P18434 whole entry partner): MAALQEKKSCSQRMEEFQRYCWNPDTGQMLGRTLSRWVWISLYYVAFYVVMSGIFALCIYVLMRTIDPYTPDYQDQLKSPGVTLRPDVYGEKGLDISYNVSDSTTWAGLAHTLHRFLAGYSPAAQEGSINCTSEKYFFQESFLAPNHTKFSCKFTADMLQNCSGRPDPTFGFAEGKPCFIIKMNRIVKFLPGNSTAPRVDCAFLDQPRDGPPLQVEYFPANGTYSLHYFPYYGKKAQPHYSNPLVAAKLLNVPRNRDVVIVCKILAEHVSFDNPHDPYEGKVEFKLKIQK

Row | IC50 [nM] | SMILES
1 | 640 | CNCc1cn(S(=O)(=O)c2cccc(F)c2)c2cc(Cc3ccc(OC)nc3Cl)ccc12 [Example 292, 1-(6-((2-chloro-6-methoxypyridin-3-yl)methyl)-1-((3-fluorophenyl)sulfonyl)-1H-indol-3-yl)-N-methylmethanamine hydrochloride]
2 | 550 | CNCc1cn(S(=O)(=O)c2cccc(Cl)c2)c2cc(Cc3ccc(OC)nc3Cl)ccc12 [Example 293, 1-(6-((2-chloro-6-methoxypyridin-3-yl)methyl)-1-((3-chlorophenyl)sulfonyl)-1H-indol-3-yl)-N-methylmethanamine]
3 | 630 | CNCc1cn(S(=O)(=O)c2cccc(C(F)(F)F)c2)c2cc(Cc3ccc(OC)nc3Cl)ccc12 [Example 294, 1-(6-((2-chloro-6-methoxypyridin-3-yl)methyl)-1-((3-(trifluoromethyl)phenyl)sulfonyl)-1H-indol-3-yl)-N-methylmethanamine hydrochloride]
4 | 920 | CNCc1cn(S(=O)(=O)c2cccc(OC)c2)c2cc(Cc3ccc(OC)nc3Cl)ccc12 [Example 295, 1-(6-((2-chloro-6-methoxypyridin-3-yl)methyl)-1-((3-methoxyphenyl)sulfonyl)-1H-indol-3-yl)-N-methylmethanamine]
5 | 930 | CNCc1cn(S(=O)(=O)c2cccc(OC(F)F)c2)c2cc(Cc3ccc(OC)nc3Cl)ccc12 [Example 296, 1-(6-((2-chloro-6-methoxypyridin-3-yl)methyl)-1-((3-(difluoromethoxy)phenyl)sulfonyl)-1H-indol-3-yl)-N-methylmethanamine]
6 | 1190 | CNCc1cn(S(=O)(=O)c2cccc(OC(F)(F)F)c2)c2cc(Cc3ccc(OC)nc3Cl)ccc12 [Example 297, 1-(6-((2-chloro-6-methoxypyridin-3-yl)methyl)-1-((3-(trifluoromethoxy)phenyl)sulfonyl)-1H-indol-3-yl)-N-methylmethanamine]
7 | 3600 | CNCc1cn(S(=O)(=O)c2ccc(OC(F)F)cc2)c2cc(Cc3ccc(OC)nc3Cl)ccc12 [Example 298, 1-(6-((2-chloro-6-methoxypyridin-3-yl)methyl)-1-((4-(difluoromethoxy)phenyl)sulfonyl)-1H-indol-3-yl)-N-methylmethanamine]
8 | 270 | CNCc1cn(S(=O)(=O)c2cccc(F)c2)c2cc(Cc3ccc(C)cc3Cl)ccc12 [Example 299, 1-(6-(2-chloro-4-methylbenzyl)-1-((3-fluorophenyl)sulfonyl)-1H-indol-3-yl)-N-methylmethanamine]
9 | 1530 | CNCc1cn(S(=O)(=O)c2ccccc2F)c2cc(Cc3ccc(C)cc3Cl)ccc12 [Example 300, 1-(6-(2-chloro-4-methylbenzyl)-1-((2-fluorophenyl)sulfonyl)-1H-indol-3-yl)-N-methylmethanamine]
10 | 790 | CNCc1cn(S(=O)(=O)c2cccc(Cl)c2)c2cc(Cc3ccc(C)cc3Cl)ccc12 [Example 301, 1-(6-(2-chloro-4-methylbenzyl)-1-((3-chlorophenyl)sulfonyl)-1H-indol-3-yl)-N-methylmethanamine]
11 | 320 | CNCc1cn(S(=O)(=O)c2cccc(C(F)(F)F)c2)c2cc(Cc3ccc(C)cc3Cl)ccc12 [Example 302, 1-(6-(2-chloro-4-methylbenzyl)-1-((3-(trifluoromethyl)phenyl)sulfonyl)-1H-indol-3-yl)-N-methylmethanamine]
12 | 470 | CNCc1cn(S(=O)(=O)c2cccc(OC)c2)c2cc(Cc3ccc(C)cc3Cl)ccc12 [Example 303, 1-(6-(2-chloro-4-methylbenzyl)-1-((3-methoxyphenyl)sulfonyl)-1H-indol-3-yl)-N-methylmethanamine]
13 | 600 | CNCc1cn(S(=O)(=O)c2cccc(OC(F)F)c2)c2cc(Cc3ccc(C)cc3Cl)ccc12 [Example 304, 1-(6-(2-chloro-4-methylbenzyl)-1-((3-(difluoromethoxy)phenyl)sulfonyl)-1H-indol-3-yl)-N-methylmethanamine]
14 | 610 | CNCc1cn(S(=O)(=O)c2cccc(OC(F)(F)F)c2)c2cc(Cc3ccc(C)cc3Cl)ccc12 [Example 305, 1-(6-(2-chloro-4-methylbenzyl)-1-((3-(trifluoromethoxy)phenyl)sulfonyl)-1H-indol-3-yl)-N-methylmethanamine]
15 | 680 | CNCc1cn(S(=O)(=O)c2ccc(F)cc2)c2cc(Cc3ccc(C)cc3Cl)ccc12 [Example 306]
16 | 1210 | CNCc1cn(S(=O)(=O)c2ccc(OC)cc2)c2cc(Cc3ccc(C)cc3Cl)ccc12 [Example 307, 1-(6-(2-chloro-4-methylbenzyl)-1-((4-methoxyphenyl)sulfonyl)-1H-indol-3-yl)-N-methylmethanamine]
17 | 1340 | CNCc1cn(S(=O)(=O)c2ccc(OC(F)F)cc2)c2cc(Cc3ccc(C)cc3Cl)ccc12 [Example 308, 1-(6-(2-chloro-4-methylbenzyl)-1-((4-(difluoromethoxy)phenyl)sulfonyl)-1H-indol-3-yl)-N-methylmethanamine]

Row | IC50 [nM] | SMILES
18 | 330 | CNCc1cn(S(=O)(=O)c2cccnc2)c2cc(Oc3ccccc3[N+](=O)[O-])ccc12 [Example 310, N-methyl-1-(6-(2-nitrophenoxy)-1-(pyridin-3-ylsulfonyl)-1H-indol-3-yl)methanamine hydrochloride]
19 | 4170 | CNCc1cn(S(=O)(=O)c2cccnc2)c2cc(Oc3ccc(C(F)(F)F)cc3Cl)ccc12 [Example 311, 1-(6-(2-chloro-4-(trifluoromethyl)phenoxy)-1-(pyridin-3-ylsulfonyl)-1H-indol-3-yl)-N-methylmethanamine hydrochloride]
20 | 660 | CNCc1cn(S(=O)(=O)c2cccnc2)c2cc(Oc3ncc(C(F)(F)F)cc3Cl)ccc12 [Example 312, 1-(6-((3-chloro-5-(trifluoromethyl)pyridin-2-yl)oxy)-1-(pyridin-3-ylsulfonyl)-1H-indol-3-yl)-N-methylmethanamine hydrochloride]
21 | 25000 | CNCc1cn(S(=O)(=O)c2cccnc2)c2cc(Oc3ncc(F)cn3)ccc12 [Example 313, 1-(6-((5-fluoropyrimidin-2-yl)oxy)-1-(pyridin-3-ylsulfonyl)-1H-indol-3-yl)-N-methylmethanamine hydrochloride]
22 | 19400 | CNCc1cn(S(=O)(=O)c2cccnc2)c2cc(Oc3cc(Cl)ncn3)ccc12 [Example 314, 1-(6-((6-chloropyrimidin-4-yl)oxy)-1-(pyridin-3-ylsulfonyl)-1H-indol-3-yl)-N-methylmethanamine hydrochloride]
23 | 1920 | CCNCc1cn(S(=O)(=O)c2cccc(C(F)(F)F)c2)c2cc(Nc3ccc(OC)nc3Cl)ccc12 [Example 317, N-(2-chloro-6-methoxypyridin-3-yl)-3-((ethylamino)methyl)-1-((3-(trifluoromethyl)phenyl)sulfonyl)-1H-indol-6-amine]
24 | 4250 | COc1ccc(Nc2ccc3c(CN4CCCC4)cn(S(=O)(=O)c4cccc(C(F)(F)F)c4)c3c2)c(Cl)n1 [Example 318, N-(2-chloro-6-methoxypyridin-3-yl)-3-(pyrrolidin-1-ylmethyl)-1-((3-(trifluoromethyl)phenyl)sulfonyl)-1H-indol-6-amine]
25 | 1240 | COc1ccc(Nc2ccc3c(CN(C)C)cn(S(=O)(=O)c4cccc(C(F)(F)F)c4)c3c2)c(Cl)n1 [Example 319, N-(2-chloro-6-methoxypyridin-3-yl)-3-((dimethylamino)methyl)-1-((3-(trifluoromethyl)phenyl)sulfonyl)-1H-indol-6-amine]
26 | 20000 | CNC(=O)c1cn(S(=O)(=O)c2cccc(C(F)(F)F)c2)c2cc(Nc3ccc(OC)nc3Cl)ccc12 [Example 320, 6-((2-chloro-6-methoxypyridin-3-yl)amino)-N-methyl-1-((3-(trifluoromethyl)phenyl)sulfonyl)-1H-indol-3-carboxamide]
27 | 3350 | COc1ccc(Nc2ccc3c(C(=O)N(C)C)cn(S(=O)(=O)c4cccc(C(F)(F)F)c4)c3c2)c(Cl)n1 [Example 321, 6-((2-chloro-6-methoxypyridin-3-yl)amino)-N,N-dimethyl-1-((3-(trifluoromethyl)phenyl)sulfonyl)-1H-indol-3-carboxamide]
28 | 24000 | Cc1ccc(Nc2ccc3c(C(=O)N(C)C)cn(S(=O)(=O)c4cccnc4)c3c2)c(F)c1 [Example 322, 6-((2-fluoro-4-methylphenyl)amino)-N,N-dimethyl-1-(pyridin-3-ylsulfonyl)-1H-indol-3-carboxamide]
29 | 20000 | Cc1ccc(Nc2ccc3c(C(=O)N(C)C)cn(S(=O)(=O)c4cccnc4)c3c2)c(Cl)c1 [Example 323, 6-((2-chloro-4-methylphenyl)amino)-N,N-dimethyl-1-(pyridin-3-ylsulfonyl)-1H-indol-3-carboxamide]
30 | 20000 | COc1ccc(Nc2ccc3c(C(=O)N(C)C)cn(S(=O)(=O)c4cccnc4)c3c2)c(F)c1 [Example 324, 6-((2-fluoro-4-methoxyphenyl)amino)-N,N-dimethyl-1-(pyridin-3-ylsulfonyl)-1H-indol-3-carboxamide]
31 | 68000 | CN(C)C(=O)c1cn(S(=O)(=O)c2cccnc2)c2cc(Nc3ccc(C(F)(F)F)cc3Cl)ccc12 [Example 325, 6-((2-chloro-4-(trifluoromethyl)phenyl)amino)-N,N-dimethyl-1-(pyridin-3-ylsulfonyl)-1H-indol-3-carboxamide]
32 | 37000 | Cc1cc(OC(F)(F)F)ccc1Nc1ccc2c(C(=O)N(C)C)cn(S(=O)(=O)c3cccnc3)c2c1 [Example 326, N,N-dimethyl-6-((2-methyl-4-(trifluoromethoxy)phenyl)amino)-1-(pyridin-3-ylsulfonyl)-1H-indol-3-carboxamide]
33 | 40000 | CN(C)C(=O)c1cn(S(=O)(=O)c2cccnc2)c2cc(Nc3ccc(OC(F)(F)F)cc3Cl)ccc12 [Example 327, 6-((2-chloro-4-(trifluoromethoxy)phenyl)amino)-N,N-dimethyl-1-(pyridin-3-ylsulfonyl)-1H-indol-3-carboxamide]
